Assays:
pigweed, palmer [1] = experiment: Test C postemergence; format: in vivo, Amaranthus palmeri; details: 10 days
Outline: (§1)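 Visual injury ratings on a 0–100 scale (100 = complete control) were made against untreated controls 10 days after treatment in the greenhouse. Compounds, formulated with surfactant in non-phytotoxic solvent, were sprayed on soil preemergence or onto one- to two-leaf plants 2–10 cm tall postemergence.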

barnyardgrass [2] = experiment: Test D flooded paddy test; format: in vivo, Echinochloa crus-galli; details: 250 g ai/ha, applied to paddy water, visual rating after 13 to 14 days, scale 0 to 100 (0 no effect, 100 complete control)
Outline: (§2)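 Visual ratings from 0, meaning no effect, to 100, meaning complete control, were assigned against untreated controls 13 to 14 days after compounds were added to the floodwater of pots kept 3 cm deep, with plants at the 2-leaf stage.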

ducksalad = experiment: Test D flooded paddy test; format: in vivo, Heteranthera limosa; details: 250 g ai/ha, applied to paddy water, visual rating after 13 to 14 days, scale 0 to 100 (0 no effect, 100 complete control)
Outline: as §2

barnyardgrass [3] = experiment: Test C postemergence; format: in vivo, Echinochloa crusgalli; details: 10 days
Outline: as §1

ragweed [4] = experiment: Test C postemergence; format: in vivo, Ambrosia artemisiifolia; details: 10 days
Outline: as §1

green foxtail [5] = experiment: Test C postemergence; format: in vivo, Setaria viridis; details: 10 days
Outline: as §1

pigweed, palmer [6] = experiment: Test C preemergence; format: in vivo, Amaranthus palmeri; details: for Pigweed, Palmer plant response rating: preemergence, 0 to 100 scale (0 no effect, 100 complete control)
Outline: as §1

sedge, umbrella = experiment: Test D flooded paddy test; format: in vivo, Cyperus difformis; details: 250 g ai/ha, applied to paddy water, visual rating after 13 to 14 days, scale 0 to 100 (0 no effect, 100 complete control)
Outline: as §2

blackgrass [7] = experiment: Test C preemergence; format: in vivo, Alopecurus myosuroides; details: for Blackgrass plant response rating: preemergence, 0 to 100 scale (0 no effect, 100 complete control)
Outline: as §1

horseweed = experiment: Test C postemergence; format: in vivo, Erigeron canadensis; details: 10 days
Outline: as §1

ryegrass, Italian [8] = experiment: Test C postemergence; format: in vivo, Lolium multiflorum; details: 10 days
Outline: as §1

oat, wild [9] = experiment: Test C postemergence; format: in vivo, Avena fatua; details: 10 days
Outline: as §1

corn [10] = experiment: Test C postemergence; format: in vivo, Zea mays; details: 10 days
Outline: as §1

soybean [11] = experiment: Test C postemergence; format: in vivo, Glycine max; details: 10 days
Outline: as §1

oat, wild [12] = experiment: Test C preemergence; format: in vivo, Avena fatua; details: for Oat, Wild plant response rating: preemergence, 0 to 100 scale (0 no effect, 100 complete control)
Outline: as §1

galium = experiment: Test C postemergence; format: in vivo, Galium aparine; details: 10 days
Outline: as §1

ryegrass, Italian [13] = experiment: Test C preemergence; format: in vivo, Lolium multiflorum; details: preemergence, 0 to 100 scale (0 no effect, 100 complete control)
Outline: as §1

corn [14] = experiment: Test C preemergence; format: in vivo, Zea mays; details: for Corn plant response rating: preemergence, 0 to 100 scale (0 no effect, 100 complete control)
Outline: as §1

kochia [15] = experiment: Test C postemergence; format: in vivo, Bassia scoparia; details: 10 days
Outline: as §1

rice = experiment: Test D flooded paddy test; format: in vivo, Oryza sativa; details: 250 g ai/ha, applied to paddy water, visual rating after 13 to 14 days, scale 0 to 100 (0 no effect, 100 complete control)
Outline: as §2

wheat [16] = experiment: Test C postemergence; format: in vivo, Triticum aestivum; details: 10 days
Outline: as §1

barnyardgrass [17] = experiment: Test C preemergence; format: in vivo, Echinochloa crusgalli; details: for Barnyardgrass plant response rating: preemergence, 0 to 100 scale (0 no effect, 100 complete control)
Outline: as §1

wheat [18] = experiment: Test C preemergence; format: in vivo, Triticum aestivum; details: for Wheat plant response rating: preemergence, 0 to 100 scale (0 no effect, 100 complete control)
Outline: as §1

green foxtail [19] = experiment: Test C preemergence; format: in vivo, Setaria viridis; details: for Foxtail, Green plant response rating: preemergence, 0 to 100 scale (0 no effect, 100 complete control)
Outline: as §1

soybean [20] = experiment: Test C preemergence; format: in vivo, Glycine max; details: for Soybean plant response rating: preemergence, 0 to 100 scale (0 no effect, 100 complete control)
Outline: as §1

kochia [21] = experiment: Test C preemergence; format: in vivo, Bassia scoparia; details: for Kochia plant response rating: preemergence, 0 to 100 scale (0 no effect, 100 complete control)
Outline: as §1

blackgrass [22] = experiment: Test C postemergence; format: in vivo, Alopecurus myosuroides; details: 10 days
Outline: as §1

ragweed [23] = experiment: Test C preemergence; format: in vivo, Ambrosia artemisiifolia
Outline: as §1

[24] = 500 g ai/ha, postemergence, 0 to 100 scale (0 no effect, 100 complete control)
[25] = Postemergence, 125 g ai/ha, 0 to 100 scale (0 no effect, 100 complete control)
[26] = 125 g ai/ha, postemergence, 0 to 100 scale, 0 no effect, 100 complete control
[27] = Postemergence, 31 g ai/ha, 0 to 100 scale, 0 no effect, 100 complete control
[28] = Preemergence, 31 g ai/ha, 0 to 100 scale, 0 no effect, 100 complete control

## Cc1cccc2c1OC(C(F)(F)F)CN2C(=O)c1cccc(-n2cnc(C(C)C)n2)c1 (single isomer, unassigned) [Compound 302]
pigweed, palmer [1]; [24]
  Plant response rating, Pigweed, Palmer: 20
pigweed, palmer [1]; [25]
  Plant response rating, Pigweed, Palmer: 10
Barnyardgrass [2]
  Plant response rating, Barnyardgrass (Flood): 0
ducksalad
  Plant response rating, Ducksalad (Flood): 0
Barnyardgrass [3]; [24]
  Plant response rating, Barnyardgrass: 10
Barnyardgrass [3]; [25]
  Plant response rating, Barnyardgrass: 10
Ragweed [4]; [24]
  Plant response rating, Ragweed: 20
Ragweed [4]; [25]
  Plant response rating, Ragweed: 20
Green foxtail [5]; [24]
  Plant response rating, Foxtail, Green: 10
Green foxtail [5]; [25]
  Plant response rating, Foxtail, Green: 0
pigweed, palmer [6]; 500 g ai/ha
  Pigweed, Palmer plant response rating: 80
pigweed, palmer [6]; Test C, 125 g ai/ha
  Pigweed, Palmer plant response rating: 70
sedge, umbrella
  Plant response rating, Sedge, Umbrella (Flood): 0
Blackgrass [7]; 500 g ai/ha
  Blackgrass plant response rating: 60
Blackgrass [7]; Test C, 125 g ai/ha
  Blackgrass plant response rating: 30
horseweed; [24]
  Plant response rating, Horseweed: 50
horseweed; [25]
  Plant response rating, Horseweed: 60
ryegrass, Italian [8]; [24]
  Plant response rating, Ryegrass, Italian: 50
ryegrass, Italian [8]; [25]
  Plant response rating, Ryegrass, Italian: 0
oat, wild [9]; [24]
  Plant response rating, Oat, Wild: 10
oat, wild [9]; [25]
  Plant response rating, Oat, Wild: 0
Corn [10]; [24]
  Plant response rating, Corn: 10
Corn [10]; [25]
  Plant response rating, Corn: 10
Soybean [11]; [24]
  Plant response rating, Soybean: 90
Soybean [11]; [25]
  Plant response rating, Soybean: 80
oat, wild [12]; 500 g ai/ha
  Oat, Wild plant response rating: 80
oat, wild [12]; Test C, 125 g ai/ha
  Oat, Wild plant response rating: 0
galium; [24]
  Plant response rating, Galium: 90
ryegrass, Italian [13]; 500 g ai/ha
  Ryegrass, Italian plant response rating: 100
ryegrass, Italian [13]; Test C, 125 g ai/ha
  Ryegrass, Italian plant response rating: 80
Corn [14]; 500 g ai/ha
  Corn plant response rating: 0
Kochia [15]; [24]
  Plant response rating, Kochia: 70
Kochia [15]; [25]
  Plant response rating, Kochia: 20
rice
  Plant response rating, Rice (Flood): 0
Wheat [16]; [24]
  Plant response rating, Wheat: 10
Wheat [16]; [25]
  Plant response rating, Wheat: 10
Barnyardgrass [17]; 500 g ai/ha
  Barnyardgrass plant response rating: 50
Barnyardgrass [17]; Test C, 125 g ai/ha
  Barnyardgrass plant response rating: 0
Wheat [18]; 500 g ai/ha
  Wheat plant response rating: 40
Wheat [18]; Test C, 125 g ai/ha
  Wheat plant response rating: 20
Green foxtail [19]; 500 g ai/ha
  Foxtail, Green plant response rating: 80
Green foxtail [19]; Test C, 125 g ai/ha
  Foxtail, Green plant response rating: 20
Soybean [20]; 500 g ai/ha
  Soybean plant response rating: 20
Soybean [20]; Test C, 125 g ai/ha
  Soybean plant response rating: 10
Kochia [21]; 500 g ai/ha
  Kochia plant response rating: 80
Kochia [21]; Test C, 125 g ai/ha
  Kochia plant response rating: 0
Blackgrass [22]; [24]
  Plant response rating, Blackgrass: 30
Blackgrass [22]; [25]
  Plant response rating, Blackgrass: 0

## CCC(O)(CC)c1ncn(-c2ccc(C)c(C(=O)N3C[C@H](C)Oc4c(Cl)cccc43)c2)n1 [Compound 180]
pigweed, palmer [1]; [26]
  Plant response rating, Pigweed, Palmer: 70
pigweed, palmer [1]; [27]
  Plant response rating, Pigweed, Palmer: 30
Barnyardgrass [2]
  Plant response rating, Barnyardgrass (Flood): 0
ducksalad
  Plant response rating, Ducksalad (Flood): 65
Barnyardgrass [3]; [26]
  Plant response rating, Barnyardgrass: 20
Barnyardgrass [3]; [27]
  Plant response rating, Barnyardgrass: 10
Ragweed [4]; [26]
  Plant response rating, Ragweed: 60
Ragweed [4]; [27]
  Plant response rating, Ragweed: 40
Green foxtail [5]; [26]
  Plant response rating, Foxtail, Green: 20
Green foxtail [5]; [27]
  Plant response rating, Foxtail, Green: 10
pigweed, palmer [6]; [28]
  Plant response rating, Pigweed, Palmer: 0
pigweed, palmer [6]; Test C, 125 g ai/ha
  Pigweed, Palmer plant response rating: 60
sedge, umbrella
  Plant response rating, Sedge, Umbrella (Flood): 40
Ragweed [23]; [28]
  Plant response rating, Ragweed: 0
Ragweed [23]; Test C, preemergence, 125 g ai/ha, 0 to 100 scale (0 no effect, 100 complete control)
  Ragweed plant response rating: 20
Blackgrass [7]; [28]
  Plant response rating, Blackgrass: 0
Blackgrass [7]; Test C, 125 g ai/ha
  Blackgrass plant response rating: 20
horseweed; [26]
  Plant response rating, Horseweed: 0
horseweed; [27]
  Plant response rating, Horseweed: 0
ryegrass, Italian [8]; [26]
  Plant response rating, Ryegrass, Italian: 50
ryegrass, Italian [8]; [27]
  Plant response rating, Ryegrass, Italian: 0
oat, wild [9]; [26]
  Plant response rating, Oat, Wild: 70
oat, wild [9]; [27]
  Plant response rating, Oat, Wild: 0
Corn [10]; [26]
  Plant response rating, Corn: 10
Corn [10]; [27]
  Plant response rating, Corn: 0
Soybean [11]; [26]
  Plant response rating, Soybean: 100
Soybean [11]; [27]
  Plant response rating, Soybean: 90
oat, wild [12]; [28]
  Plant response rating, Oat, Wild: 0
oat, wild [12]; Test C, 125 g ai/ha
  Oat, Wild plant response rating: 50
galium; [26]
  Plant response rating, Galium: 90
galium; [27]
  Plant response rating, Galium: 70
Corn [14]; [28]
  Plant response rating, Corn: 0
Corn [14]; Test C, 125 g ai/ha
  Corn plant response rating: 0
Kochia [15]; [26]
  Plant response rating, Kochia: 50
Kochia [15]; [27]
  Plant response rating, Kochia: 30
rice
  Plant response rating, Rice (Flood): 0
Wheat [16]; [26]
  Plant response rating, Wheat: 20
Wheat [16]; [27]
  Plant response rating, Wheat: 10
Barnyardgrass [17]; [28]
  Plant response rating, Barnyardgrass: 0
Barnyardgrass [17]; Test C, 125 g ai/ha
  Barnyardgrass plant response rating: 60
Wheat [18]; [28]
  Plant response rating, Wheat: 0
Wheat [18]; Test C, 125 g ai/ha
  Wheat plant response rating: 0
Green foxtail [19]; [28]
  Plant response rating, Foxtail, Green: 30
Green foxtail [19]; Test C, 125 g ai/ha
  Foxtail, Green plant response rating: 70
Soybean [20]; [28]
  Plant response rating, Soybean: 0
Soybean [20]; Test C, 125 g ai/ha
  Soybean plant response rating: 50
Kochia [21]; [28]
  Plant response rating, Kochia: 0
Kochia [21]; Test C, 125 g ai/ha
  Kochia plant response rating: 0
Blackgrass [22]; [26]
  Plant response rating, Blackgrass: 10
Blackgrass [22]; [27]
  Plant response rating, Blackgrass: 0

— patent US20260262643A1, “HERBICIDAL BENZOXAZINES” (FMC CORPORATION, priority 2022, published 2026)
